# Results as given in paper PMC10786269 (Proceedings of the National Academy of Sciences of the …, 2024).
# Structures can show the parent of a compound that is named as a salt.
# Columns and labels:
# [1] = target: T1, Polyphosphate kinase-1 (PPK-1, Rv2984) (Mycobacterium tuberculosis, UniProt P9WHV9); assay: microscale thermophoresis; type: binding
# T1 sequence (P9WHV9 1-742): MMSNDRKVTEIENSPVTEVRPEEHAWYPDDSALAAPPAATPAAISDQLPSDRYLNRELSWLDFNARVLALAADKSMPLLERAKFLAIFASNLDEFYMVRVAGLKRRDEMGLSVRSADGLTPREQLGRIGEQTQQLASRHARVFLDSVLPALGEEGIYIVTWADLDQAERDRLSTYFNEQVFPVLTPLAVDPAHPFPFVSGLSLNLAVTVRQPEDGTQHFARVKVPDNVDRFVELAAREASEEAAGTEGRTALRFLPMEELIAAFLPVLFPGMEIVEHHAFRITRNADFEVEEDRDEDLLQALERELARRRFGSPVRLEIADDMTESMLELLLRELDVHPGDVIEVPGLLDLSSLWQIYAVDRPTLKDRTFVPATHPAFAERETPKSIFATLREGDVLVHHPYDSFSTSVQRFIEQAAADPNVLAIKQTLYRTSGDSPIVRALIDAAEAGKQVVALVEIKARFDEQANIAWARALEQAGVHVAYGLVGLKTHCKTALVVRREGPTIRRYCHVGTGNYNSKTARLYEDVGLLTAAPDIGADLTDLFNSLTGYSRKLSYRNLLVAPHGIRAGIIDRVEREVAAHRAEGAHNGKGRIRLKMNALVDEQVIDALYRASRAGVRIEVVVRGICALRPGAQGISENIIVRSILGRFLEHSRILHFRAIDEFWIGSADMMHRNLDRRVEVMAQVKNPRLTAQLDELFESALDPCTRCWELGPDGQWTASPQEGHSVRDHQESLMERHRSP
# [2] = target: T1, Polyphosphate kinase-1 (PPK-1, Rv2984); type: biochemical
SMILES,Kd [1] [µM],inhibition of PPK-1 ATP and polyP synthesis (SI Appendix Fig. S6 A-C) [2]
"O=C(c1ccc(OCCN2CCCCC2)cc1)c1c(-c2ccc(O)cc2)sc2cc(O)ccc12 [Cpd-11, raloxifene hydrochloride]",40,
O=C1OC2(c3ccccc31)c1ccc(O)c(O)c1Oc1c2ccc(O)c1O [gallein],,gallein inhibited both ATP and polyP synthesis activity associated with the PPK-1 homolog from M. tuberculosis
